Source: ChEMBL document CHEMBL1201862, “PubChem BioAssay data set” (2004)
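48-hour exposure; five concentrations; linearly interpolated endpoints. At the GI50, growth is halved.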 Calls of active or inactive are those of the source. Rule as the data show it: active = GI50 up to about 1.1 µM and inactive = higher.

Columns and labels:
Test in all cases: inhibition of tumour cell growth, NCI panel, 48 h
SK-OV-3 = system: SK-OV-3
HOP-92 = system: HOP-92
NCI-H23 = system: NCI-H23
PC-3 = system: PC-3
MDA-MB-435 = system: MDA-MB-435
SK-MEL-28 = system: SK-MEL-28
MOLT-4 = system: MOLT-4
RXF 393 = system: RXF 393
OVCAR-4 = system: OVCAR-4
M14 = system: M14
HL-60 = system: HL-60
LOX IMVI = system: LOX IMVI
MDA-N = system: MDA-N
UO-31 = system: UO-31
IGROV-1 = system: IGROV-1
NCI-H460 = system: NCI-H460
A498 = system: A498
K562 = system: K562
SF-295 = system: SF-295
Malme-3M = system: Malme-3M
CAKI-1 = system: CAKI-1
HCC 2998 = system: HCC 2998
SNB-75 = system: SNB-75
NCI-H522 = system: NCI-H522
MDA-MB-231 = system: MDA-MB-231
OVCAR-8 = system: OVCAR-8
HCT-116 = system: HCT-116
SN12C = system: SN12C
U-251 = system: U-251
ACHN = system: ACHN
SNB-19 = system: SNB-19
TK-10 = system: TK-10
RPMI-8226 = system: RPMI-8226
NCI/ADR-RES = system: NCI/ADR-RES
EKVX = system: EKVX
SR = system: SR
KM12 = system: KM12
Hs-578T = system: Hs-578T
SF-268 = system: SF-268
HT-29 = system: HT-29
A549 = system: A549
CCRF-CEM = system: CCRF-CEM
SK-MEL-2 = system: SK-MEL-2
DU-145 = system: DU-145
HCT-15 = system: HCT-15
SF-539 = system: SF-539
BT-549 = system: BT-549
SK-MEL-5 = system: SK-MEL-5
786-0 = system: 786-0
COLO 205 = system: COLO 205
OVCAR-3 = system: OVCAR-3
OVCAR-5 = system: OVCAR-5
MCF7 = system: MCF7
UACC-257 = system: UACC-257
NCI-H226 = system: NCI-H226
T47D = system: T47D
SW-620 = system: SW-620
UACC-62 = system: UACC-62
HOP-62 = system: HOP-62
DMS-273 = system: DMS-273
SNB-78 = system: SNB-78
LXFL 529 = system: LXFL 529
M19-MEL = system: M19-MEL
XF498 = system: XF498
DLD-1 = system: DLD-1
DMS-114 = system: DMS-114

In the case of `O=C1C=CC(=O)N1c1ccc2c(c1)Cc1cc(NC(=O)C(F)(F)F)ccc1-2`, the GI50 (SK-OV-3) is reported as > 100 µM (inactive), the GI50 (HOP-92) is reported as 16.8 µM (inactive) and the GI50 (NCI-H23) is reported as 16.4 µM (inactive). For the same compound, the GI50 (PC-3) was 17.1 µM (inactive), the GI50 (MDA-MB-435) was 17.4 µM (inactive) and the GI50 (SK-MEL-28) was 18.1 µM (inactive). For the same compound, the GI50 (MOLT-4) was 4.25 µM (inactive), the GI50 (RXF 393) was 5.66 µM (inactive) and the GI50 (OVCAR-4) was 17.3 µM (inactive). For the same compound, the GI50 (M14) was 20.9 µM (inactive), the GI50 (HL-60) was 12.2 µM (inactive) and the GI50 (LOX IMVI) was 18 µM (inactive). For the same compound, the GI50 (MDA-N) was 17.1 µM (inactive), the GI50 (UO-31) was 13.6 µM (inactive) and the GI50 (IGROV-1) was 16.6 µM (inactive). The GI50 (NCI-H460) was > 100 µM (inactive), the GI50 (A498) was 20 µM (inactive) and the GI50 (K562) was 9.25 µM (inactive). The GI50 (SF-295) was > 100 µM (inactive), the GI50 (Malme-3M) was 19.8 µM (inactive) and the GI50 (CAKI-1) was 16 µM (inactive). For the same compound, the GI50 (HCC 2998) was > 45.2 µM (inactive), the GI50 (SNB-75) was 16.1 µM (inactive) and the GI50 (NCI-H522) was 5.09 µM (inactive). The GI50 (MDA-MB-231) was 16.4 µM (inactive), the GI50 (OVCAR-8) was 17.7 µM (inactive) and the GI50 (HCT-116) was 7.36 µM (inactive). For the same compound, the GI50 (SN12C) was 17.1 µM (inactive), the GI50 (U-251) was 18.2 µM (inactive) and the GI50 (ACHN) was 4.43 µM (inactive). For the same compound, the GI50 (SNB-19) was > 47 µM (inactive), the GI50 (TK-10) was 3 µM (inactive) and the GI50 (RPMI-8226) was 2.9 µM (inactive). For the same compound, the GI50 (NCI/ADR-RES) was 27.7 µM (inactive), the GI50 (EKVX) was 14.9 µM (inactive) and the GI50 (SR) was 2.74 µM (inactive). For the same compound, the GI50 (KM12) was 18.5 µM (inactive), the GI50 (Hs-578T) was 21.1 µM (inactive) and the GI50 (SF-268) was 19.1 µM (inactive). For the same compound, the GI50 (HT-29) was 10.2 µM (inactive), the GI50 (A549) was 17.9 µM (inactive) and the GI50 (CCRF-CEM) was 3.96 µM (inactive). The GI50 (SK-MEL-2) was 18.4 µM (inactive), the GI50 (DU-145) was 16 µM (inactive) and the GI50 (HCT-15) was 10.6 µM. For the same compound, the GI50 (SF-539) was 18 µM (inactive), the GI50 (BT-549) was 16.6 µM (inactive) and the GI50 (SK-MEL-5) was 47 µM (inactive). For the same compound, the GI50 (786-0) was 5.58 µM (inactive), the GI50 (COLO 205) was 13.1 µM (inactive) and the GI50 (OVCAR-3) was 15.7 µM (inactive). For the same compound, the GI50 (OVCAR-5) was 16.7 µM (inactive), the GI50 (MCF7) was 15.1 µM (inactive) and the GI50 (UACC-257) was 18 µM (inactive). The GI50 (NCI-H226) was 4.84 µM (inactive), the GI50 (T47D) was 17.9 µM (inactive) and the GI50 (SW-620) was 9.84 µM (inactive). The GI50 (UACC-62) was 16.8 µM (inactive) and the GI50 (HOP-62) was 20.1 µM (inactive).

With `C=CNC(=S)n1nc(-c2ccccc2NC(=O)C(F)(F)F)c(=O)n(C(=S)NC=C)c1=S` the GI50 (DMS-273) was 26.8 µM (inactive), the GI50 (SK-OV-3) was 30.3 µM (inactive) and the GI50 (HOP-92) was 10.5 µM (inactive). The GI50 (NCI-H23) was 26.7 µM (inactive), the GI50 (SK-MEL-28) was > 100 µM (inactive) and the GI50 (MOLT-4) was 15.4 µM (inactive). The GI50 (RXF 393) was 73.6 µM (inactive), the GI50 (OVCAR-4) was 3.58 µM (inactive) and the GI50 (M14) was 34.6 µM (inactive). The GI50 (LOX IMVI) was 31.8 µM (inactive), the GI50 (UO-31) was 13.9 µM (inactive) and the GI50 (IGROV-1) was 54 µM (inactive). For the same compound, the GI50 (NCI-H460) was 15.1 µM (inactive), the GI50 (K562) was 18.1 µM (inactive) and the GI50 (SNB-78) was 51.1 µM (inactive). For the same compound, the GI50 (SF-295) was 19.2 µM (inactive), the GI50 (Malme-3M) was 56.2 µM (inactive) and the GI50 (CAKI-1) was 23.1 µM (inactive). For the same compound, the GI50 (HCC 2998) was 47.9 µM (inactive), the GI50 (SNB-75) was 26 µM (inactive) and the GI50 (NCI-H522) was 11.2 µM (inactive). For the same compound, the GI50 (OVCAR-8) was 33 µM (inactive), the GI50 (HCT-116) was > 100 µM (inactive) and the GI50 (SN12C) was 48.9 µM (inactive). For the same compound, the GI50 (U-251) was 34.9 µM (inactive), the GI50 (LXFL 529) was 19.5 µM (inactive) and the GI50 (M19-MEL) was 31.8 µM (inactive). The GI50 (XF498) was 30.2 µM (inactive), the GI50 (ACHN) was 24.4 µM (inactive) and the GI50 (SNB-19) was 28.6 µM (inactive). For the same compound, the GI50 (TK-10) was > 100 µM (inactive), the GI50 (EKVX) was 22.3 µM (inactive) and the GI50 (SR) was 16.4 µM (inactive). For the same compound, the GI50 (KM12) was 29.3 µM (inactive), the GI50 (DLD-1) was 16.7 µM (inactive) and the GI50 (SF-268) was 15.4 µM (inactive). For the same compound, the GI50 (HT-29) was 18.6 µM (inactive), the GI50 (CCRF-CEM) was 24.9 µM (inactive) and the GI50 (SK-MEL-2) was 73.3 µM (inactive). For the same compound, the GI50 (HCT-15) was 16.4 µM, the GI50 (DMS-114) was 12.3 µM (inactive) and the GI50 (SK-MEL-5) was 13.3 µM (inactive). The GI50 (COLO 205) was > 10 µM (inactive), the GI50 (OVCAR-3) was 13.3 µM (inactive) and the GI50 (OVCAR-5) was 26.7 µM (inactive). For the same compound, the GI50 (NCI-H226) was 21.2 µM (inactive), the GI50 (SW-620) was 59.8 µM (inactive) and the GI50 (UACC-62) was 45.8 µM (inactive). The GI50 (HOP-62) was 29.6 µM (inactive).
